From paper PMC10175918 (Communications Biology, 2023)
Read-outs that look alike come from different tables or passages of the source.

How the values were obtained:
Assay in all cases: TGFα-shedding assay-based GPCR screening with chimeric Gα subunit proteins
Format in all cases: cell-based
348 GPCRs [1] = target: 348 GPCRs (Homo sapiens, UniProt P51681); details: 10µM, Favipiravir 100μM
348 GPCRs [2] = target: T1, 348 GPCRs (Homo sapiens, UniProt Q9Y2T5)
T1 construct: expressed in transfected cells; host or cells: HEK293A
T1 sequence (Q9Y2T5 whole entry): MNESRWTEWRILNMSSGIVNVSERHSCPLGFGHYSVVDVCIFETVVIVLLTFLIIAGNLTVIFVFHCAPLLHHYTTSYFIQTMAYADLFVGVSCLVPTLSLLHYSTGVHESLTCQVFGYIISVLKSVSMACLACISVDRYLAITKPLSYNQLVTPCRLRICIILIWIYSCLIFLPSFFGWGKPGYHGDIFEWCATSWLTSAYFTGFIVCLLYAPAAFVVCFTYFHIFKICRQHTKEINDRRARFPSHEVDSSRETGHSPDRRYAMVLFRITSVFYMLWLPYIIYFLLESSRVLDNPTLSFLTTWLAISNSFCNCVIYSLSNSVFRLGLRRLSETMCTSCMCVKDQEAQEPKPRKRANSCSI

348 GPCRs [3] = target: T2, 348 GPCRs (Homo sapiens, UniProt Q8IZF2)
T2 construct: expressed in transfected cells; host or cells: HEK293A
T2 sequence (Q8IZF2 22-1346): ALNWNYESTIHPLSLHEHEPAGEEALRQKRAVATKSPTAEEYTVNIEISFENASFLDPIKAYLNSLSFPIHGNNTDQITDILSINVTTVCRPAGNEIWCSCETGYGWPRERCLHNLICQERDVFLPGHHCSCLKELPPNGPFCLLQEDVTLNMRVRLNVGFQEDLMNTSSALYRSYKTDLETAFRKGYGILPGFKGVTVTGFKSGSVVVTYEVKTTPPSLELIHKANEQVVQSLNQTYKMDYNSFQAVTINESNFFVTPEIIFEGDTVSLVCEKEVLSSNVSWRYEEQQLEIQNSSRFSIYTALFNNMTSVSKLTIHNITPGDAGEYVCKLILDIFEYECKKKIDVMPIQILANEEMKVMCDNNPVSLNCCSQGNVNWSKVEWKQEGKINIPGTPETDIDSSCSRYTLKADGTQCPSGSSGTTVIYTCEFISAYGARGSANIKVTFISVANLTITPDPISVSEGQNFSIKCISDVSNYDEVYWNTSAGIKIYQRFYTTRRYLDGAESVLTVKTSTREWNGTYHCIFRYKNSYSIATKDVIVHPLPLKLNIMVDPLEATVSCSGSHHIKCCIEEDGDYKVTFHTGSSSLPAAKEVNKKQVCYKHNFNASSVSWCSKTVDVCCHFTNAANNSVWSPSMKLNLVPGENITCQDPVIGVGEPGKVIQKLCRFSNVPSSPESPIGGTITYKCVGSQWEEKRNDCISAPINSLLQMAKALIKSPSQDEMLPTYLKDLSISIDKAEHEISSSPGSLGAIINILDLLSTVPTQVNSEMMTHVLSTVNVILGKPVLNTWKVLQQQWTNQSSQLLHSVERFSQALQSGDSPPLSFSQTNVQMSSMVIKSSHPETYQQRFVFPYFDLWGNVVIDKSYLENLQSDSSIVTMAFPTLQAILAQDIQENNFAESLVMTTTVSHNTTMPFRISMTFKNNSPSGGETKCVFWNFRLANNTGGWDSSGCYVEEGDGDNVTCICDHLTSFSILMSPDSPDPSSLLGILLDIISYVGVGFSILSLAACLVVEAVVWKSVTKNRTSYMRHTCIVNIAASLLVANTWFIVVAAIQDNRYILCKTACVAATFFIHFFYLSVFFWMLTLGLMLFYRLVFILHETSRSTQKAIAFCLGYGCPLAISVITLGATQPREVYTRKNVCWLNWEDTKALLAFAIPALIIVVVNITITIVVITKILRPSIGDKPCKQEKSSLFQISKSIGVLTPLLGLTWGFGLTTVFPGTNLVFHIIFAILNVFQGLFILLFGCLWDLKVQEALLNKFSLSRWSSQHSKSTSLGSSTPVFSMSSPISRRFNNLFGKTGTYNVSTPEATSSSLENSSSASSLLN

348 GPCRs [4] = target: T3, 348 GPCRs (Homo sapiens, UniProt P41587)
T3 construct: expressed in transfected cells; host or cells: HEK293A
T3 sequence (P41587 24-438): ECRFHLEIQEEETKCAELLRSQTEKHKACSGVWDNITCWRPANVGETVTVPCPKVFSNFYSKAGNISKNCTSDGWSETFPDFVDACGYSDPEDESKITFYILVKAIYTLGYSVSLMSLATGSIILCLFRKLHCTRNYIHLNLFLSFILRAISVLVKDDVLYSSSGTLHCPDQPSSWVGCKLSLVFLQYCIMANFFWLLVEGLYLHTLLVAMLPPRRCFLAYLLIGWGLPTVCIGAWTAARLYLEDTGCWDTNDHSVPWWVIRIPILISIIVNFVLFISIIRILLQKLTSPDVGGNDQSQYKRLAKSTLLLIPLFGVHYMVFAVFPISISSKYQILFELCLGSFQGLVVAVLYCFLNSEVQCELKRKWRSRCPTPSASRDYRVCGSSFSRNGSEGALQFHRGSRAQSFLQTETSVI

348 GPCRs [5] = target: T4, 348 GPCRs (Homo sapiens, UniProt Q86Y34); details: 10µM, Favipiravir 100μM
T4 construct: expressed in transfected cells; host or cells: HEK293A
T4 sequence (Q86Y34 21-549): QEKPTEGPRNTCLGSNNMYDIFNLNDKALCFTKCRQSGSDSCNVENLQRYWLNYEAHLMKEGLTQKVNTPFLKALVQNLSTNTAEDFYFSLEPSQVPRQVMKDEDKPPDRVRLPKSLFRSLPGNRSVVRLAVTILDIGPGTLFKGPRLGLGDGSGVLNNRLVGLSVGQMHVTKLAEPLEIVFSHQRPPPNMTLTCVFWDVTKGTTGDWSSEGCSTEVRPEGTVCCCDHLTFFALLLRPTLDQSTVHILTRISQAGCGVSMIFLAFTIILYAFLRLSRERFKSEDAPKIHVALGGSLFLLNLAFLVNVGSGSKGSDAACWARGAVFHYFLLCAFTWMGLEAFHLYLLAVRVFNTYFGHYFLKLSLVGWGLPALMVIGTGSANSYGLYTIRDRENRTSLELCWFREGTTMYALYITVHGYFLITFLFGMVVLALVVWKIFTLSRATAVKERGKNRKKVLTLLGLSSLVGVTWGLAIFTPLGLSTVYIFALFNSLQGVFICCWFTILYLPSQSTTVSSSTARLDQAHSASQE

348 GPCRs [6] = target: T5, 348 GPCRs (Homo sapiens, UniProt P16473); details: 10µM, Favipiravir 100μM
T5 construct: expressed in transfected cells; host or cells: HEK293A
T5 sequence (P16473 21-764): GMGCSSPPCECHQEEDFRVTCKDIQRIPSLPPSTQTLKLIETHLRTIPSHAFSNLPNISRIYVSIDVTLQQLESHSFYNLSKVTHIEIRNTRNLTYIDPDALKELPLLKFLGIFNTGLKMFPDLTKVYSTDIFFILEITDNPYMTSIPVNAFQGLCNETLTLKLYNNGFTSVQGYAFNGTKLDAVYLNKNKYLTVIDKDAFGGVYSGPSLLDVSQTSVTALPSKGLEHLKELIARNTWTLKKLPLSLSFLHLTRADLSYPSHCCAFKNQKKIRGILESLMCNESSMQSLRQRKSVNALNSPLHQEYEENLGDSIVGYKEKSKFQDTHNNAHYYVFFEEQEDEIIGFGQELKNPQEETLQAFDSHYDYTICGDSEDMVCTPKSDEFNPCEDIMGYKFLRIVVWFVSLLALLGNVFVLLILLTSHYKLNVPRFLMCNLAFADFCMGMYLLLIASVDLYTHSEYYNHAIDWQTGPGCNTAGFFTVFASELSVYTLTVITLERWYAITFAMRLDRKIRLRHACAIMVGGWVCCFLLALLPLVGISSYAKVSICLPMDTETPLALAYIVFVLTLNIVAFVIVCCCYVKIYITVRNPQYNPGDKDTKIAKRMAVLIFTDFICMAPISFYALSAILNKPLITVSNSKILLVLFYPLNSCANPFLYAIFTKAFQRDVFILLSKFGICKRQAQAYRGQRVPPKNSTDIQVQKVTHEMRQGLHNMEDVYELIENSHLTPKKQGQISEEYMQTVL

348 GPCRs [7] = target: 348 GPCRs (Homo sapiens, UniProt P14416); details: 10µM, Favipiravir 100μM
348 GPCRs (Homo sapiens, UniProt P14416), sequence (P14416 whole entry): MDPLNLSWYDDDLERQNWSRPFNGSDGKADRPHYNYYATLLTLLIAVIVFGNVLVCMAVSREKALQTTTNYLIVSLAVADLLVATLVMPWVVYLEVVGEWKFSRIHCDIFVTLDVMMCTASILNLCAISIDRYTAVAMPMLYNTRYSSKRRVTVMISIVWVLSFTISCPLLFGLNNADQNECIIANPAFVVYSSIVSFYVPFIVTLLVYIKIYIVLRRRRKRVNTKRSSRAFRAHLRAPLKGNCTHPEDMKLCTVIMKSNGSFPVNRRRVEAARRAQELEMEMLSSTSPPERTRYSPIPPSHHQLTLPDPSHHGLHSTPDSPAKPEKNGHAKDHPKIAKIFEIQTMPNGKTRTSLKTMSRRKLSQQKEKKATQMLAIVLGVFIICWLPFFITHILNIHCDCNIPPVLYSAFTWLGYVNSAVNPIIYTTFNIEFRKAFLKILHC

348 GPCRs [8] = target: T6, 348 GPCRs (Homo sapiens, UniProt Q16538); details: 10µM, Favipiravir 100μM
T6 construct: expressed in transfected cells; host or cells: HEK293A
T6 sequence (Q16538 whole entry): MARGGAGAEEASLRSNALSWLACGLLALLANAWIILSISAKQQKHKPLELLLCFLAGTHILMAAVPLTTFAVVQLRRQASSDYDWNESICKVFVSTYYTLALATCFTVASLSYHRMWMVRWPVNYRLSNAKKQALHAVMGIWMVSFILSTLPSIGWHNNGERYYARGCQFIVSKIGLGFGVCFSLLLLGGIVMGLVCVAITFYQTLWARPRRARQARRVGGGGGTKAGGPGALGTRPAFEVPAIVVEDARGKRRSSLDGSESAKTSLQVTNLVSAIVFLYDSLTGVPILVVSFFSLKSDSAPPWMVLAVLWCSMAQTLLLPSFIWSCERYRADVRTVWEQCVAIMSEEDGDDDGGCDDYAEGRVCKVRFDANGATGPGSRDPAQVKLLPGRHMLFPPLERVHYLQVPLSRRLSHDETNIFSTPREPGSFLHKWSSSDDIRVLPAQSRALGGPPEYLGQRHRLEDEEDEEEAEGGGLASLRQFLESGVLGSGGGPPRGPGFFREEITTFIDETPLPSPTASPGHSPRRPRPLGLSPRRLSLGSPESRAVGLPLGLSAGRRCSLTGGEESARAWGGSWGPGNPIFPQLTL

[9] = CCR5, CCR5 (C-C motif chemokine receptor 5), read-out: % GPCR activation compared to TPA
[10] = GPCR GPR52 (G protein-coupled receptor 52), read-out: % GPCR activation compared to TPA
[11] = GPCR GPR116 (G-protein-coupled receptor 116 (ADGRF5)), read-out: % GPCR activation compared to TPA
[12] = GPCR VIPR2 (vasoactive intestinal peptide receptor 2), read-out: % GPCR activation compared to TPA
[13] = GPR97 (Adhesion G Protein-Coupled Receptor G3 (ADGRG3)), read-out: % GPCR activation compared to TPA
[14] = TSHR (thyroid stimulating hormone receptor), read-out: % GPCR activation compared to TPA
[15] = D2 (dopamine receptor D2), read-out: % GPCR activation compared to TPA
[16] = GPR162 (G Protein-Coupled Receptor 162), read-out: % GPCR activation compared to TPA
[17] = CCR5, read-out: % GPCR activation compared to TPA, CCR5 (C-C motif chemokine receptor 5)
[18] = read-out: % GPCR activation compared to TPA, GPCR GPR52 (G protein-coupled receptor 52)
[19] = read-out: % GPCR activation compared to TPA, GPCR GPR116 (G-protein-coupled receptor 116 (ADGRF5))
[20] = read-out: % GPCR activation compared to TPA, GPCR VIPR2 (vasoactive intestinal peptide receptor 2)
[21] = read-out: % GPCR activation compared to TPA, GPR97 (Adhesion G Protein-Coupled Receptor G3 (ADGRG3))
[22] = read-out: % GPCR activation compared to TPA, TSHR (thyroid stimulating hormone receptor)
[23] = read-out: % GPCR activation compared to TPA, D2 (dopamine receptor D2)
[24] = read-out: % GPCR activation compared to TPA, GPR162 (G Protein-Coupled Receptor 162)

348 GPCRs (Homo sapiens, UniProt P51681), sequence (P51681 whole entry): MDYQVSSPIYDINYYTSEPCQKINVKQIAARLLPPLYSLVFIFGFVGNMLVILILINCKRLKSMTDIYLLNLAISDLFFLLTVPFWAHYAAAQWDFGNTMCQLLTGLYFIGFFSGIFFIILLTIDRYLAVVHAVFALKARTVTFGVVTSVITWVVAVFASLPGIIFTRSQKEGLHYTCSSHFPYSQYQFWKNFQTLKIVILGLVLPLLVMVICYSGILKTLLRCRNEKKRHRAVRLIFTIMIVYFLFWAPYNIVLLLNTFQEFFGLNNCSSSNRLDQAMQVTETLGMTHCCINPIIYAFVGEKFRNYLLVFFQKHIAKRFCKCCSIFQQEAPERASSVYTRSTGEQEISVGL

Row | activation at 10 µM (348 GPCRs [1]; [9]) [%] | activation at 10 µM (348 GPCRs [2]; [10]) [%] | activation at 10 µM (348 GPCRs [3]; [11]) [%] | activation at 10 µM (348 GPCRs [4]; [12]) [%] | activation at 100 µM (348 GPCRs [5]; [13]) [%] | activation at 10 µM (348 GPCRs [6]; [14]) [%] | activation at 100 µM (348 GPCRs [7]; [15]) [%] | activation at 10 µM (348 GPCRs [8]; [16]) [%] | activation at 100 µM (348 GPCRs [2]; GPCR GPR52 (G protein-coupled receptor 52), 100μM, read-out: % GPCR activation compared to TPA) [%] | activation at 100 µM (348 GPCRs [3]; GPCR GPR116 (G-protein-coupled receptor 116 (ADGRF5)), 100μM, read-out: % GPCR activation compared to TPA) [%] | activation at 100 µM (348 GPCRs [4]; GPCR VIPR2 (vasoactive intestinal peptide receptor 2), 100μM, read-out: % GPCR activation compared to TPA) [%] | Compound | activation at 10 µM (348 GPCRs [1]; [17]) [%] | activation at 10 µM (348 GPCRs [2]; [18]) [%] | activation at 10 µM (348 GPCRs [3]; [19]) [%] | activation at 10 µM (348 GPCRs [4]; [20]) [%] | activation at 100 µM (348 GPCRs [5]; [21]) [%] | activation at 10 µM (348 GPCRs [6]; [22]) [%] | activation at 100 µM (348 GPCRs [7]; [23]) [%] | activation at 10 µM (348 GPCRs [8]; [24]) [%]
1 | -0.436 | -1.15 | -2.91 | -0.864 | -0.758 | -1.39 | 4.14 | -0.758 |  |  |  | N#C[C@@]1(c2ccc3c(N)ncnn23)O[C@H](CO)[C@@H](O)[C@H]1O [GS441524] |  |  |  |  |  |  |  | 
2 | 1.19 |  |  |  | -1.79 | -1.11 | 4.37 | -1.13 | -2.31 | -1.79 | -0.699 | NC(=O)c1nc(F)cnc1O [favipiravir, 6-fluoro-3-hydroxy-2-pyrazinecarboxamide] |  |  |  |  |  |  |  | 

The next lines start with the compound.

Row | Compound | activation at 10 µM (348 GPCRs [1]; [9]) [%] | activation at 10 µM (348 GPCRs [2]; [10]) [%] | activation at 10 µM (348 GPCRs [3]; [11]) [%] | activation at 10 µM (348 GPCRs [4]; [12]) [%] | activation at 100 µM (348 GPCRs [5]; [13]) [%] | activation at 10 µM (348 GPCRs [6]; [14]) [%] | activation at 100 µM (348 GPCRs [7]; [15]) [%] | activation at 10 µM (348 GPCRs [8]; [16]) [%] | activation at 100 µM (348 GPCRs [2]; GPCR GPR52 (G protein-coupled receptor 52), 100μM, read-out: % GPCR activation compared to TPA) [%] | activation at 100 µM (348 GPCRs [3]; GPCR GPR116 (G-protein-coupled receptor 116 (ADGRF5)), 100μM, read-out: % GPCR activation compared to TPA) [%] | activation at 100 µM (348 GPCRs [4]; GPCR VIPR2 (vasoactive intestinal peptide receptor 2), 100μM, read-out: % GPCR activation compared to TPA) [%] | activation at 10 µM (348 GPCRs [1]; [17]) [%] | activation at 10 µM (348 GPCRs [2]; [18]) [%] | activation at 10 µM (348 GPCRs [3]; [19]) [%] | activation at 10 µM (348 GPCRs [4]; [20]) [%] | activation at 100 µM (348 GPCRs [5]; [21]) [%] | activation at 10 µM (348 GPCRs [6]; [22]) [%] | activation at 100 µM (348 GPCRs [7]; [23]) [%] | activation at 10 µM (348 GPCRs [8]; [24]) [%]
3 | CC(C)C(=O)OC[C@H]1O[C@@H](n2ccc(NO)nc2=O)[C@H](O)[C@@H]1O [molnupiravir] | -2.34 | -1.34 | -2.23 | -0.156 | -1.08 | -0.502 | -0.0472 | -1.64 |  |  |  |  |  |  |  |  |  |  | 
4 | CCC(CC)COC(=O)[C@H](C)N[P@](=O)(OC[C@H]1O[C@@](C#N)(c2ccc3c(N)ncnn23)[C@H](O)[C@@H]1O)Oc1ccccc1 [remdesivir] |  |  |  |  |  |  |  |  |  |  |  | 2.38 | -0.476 | -2.59 | 0.502 | -1.74 | -3.29 | 6.53 | 2.55
5 | CC(C)OC(=O)[C@H](C)N[P@](=O)(OC[C@H]1O[C@@H](n2ccc(=O)[nH]c2=O)[C@](C)(F)[C@@H]1O)Oc1ccccc1 [sofosbuvir] |  |  |  |  |  |  |  |  |  |  |  | -0.363 | -2.66 | -0.621 | 1.3 | -1.21 | -0.338 | -0.334 | 0.48
